The target in one experiment is T1, Clostripain (Hathewaya histolytica, UniProt P09870).
T1 construct: purchased Sigma Chemical Corp., St. Louis, Mo
As to the kind of experiment: clostripain assay (BAPNA hydrolysis). It counts as biochemical, Clostridium histolyticum. The following applies: read-out: Clostripain: IC50 (μM) for inhibition of Clostripain. The method, then:
Clostripain from Clostridium histolyticum (Sigma Chemical Corp., St. Louis, Mo.) was dissolved in deionized water to a concentration of 1 mg/mL (300 units/mg) and activated with the addition of 10 mmol/L DTT. To measure its hydrolytic activity, clostripain (6 units) was added to […] Hepes buffer, pH 7.5, containing 80 gmol/L BAPNA (benzoyl-arginine-p-nitroanilide), together with 5.6 μmol/L of histatin peptide inhibitor. As controls, assays were performed in the absence of any histatin peptide inhibitor. The activity was monitored continuously at 405 nm using a Molecular Devices VMax microtitre plate reader. The activities were determined from the maximum rates of substrate hydrolysis. Assays were done in duplicate, and the means normalized to the controls.

Experiment [1] concerns C. albicans blastoconidia. The conditions noted are these: blastoconidia, 1 h at 37° C., pH 7.4. An excerpt:
C. albicans is a dimorphic yeast. It can exist in a yeast or blastoconidial form, which upon germination develops into the hyphal or germinated form. While the germinated form is considered to be more invasive, most of the C. albicans isolates harvested from the oral cavities of healthy individuals appear to be in the blastoconidial form. (Arendorf, T. M. et al. (1980), Arch. Oral Biol. 25:1-10; Gow, N.A.R. et al. (1987), Criti. Rev. Microbiol. 15:73-78; Odds, F. C. (1988), Candida and Candidosis, 2nd ed., Bailliere Tindall, London, England). Anti-fungal activity of synthetic histatin 5, histatin-based peptide 113, peptides based on portions of the amino acid sequences of histatin-based peptide 113 and peptides derived from histatin-based peptide 113 with specified amino acid substitutions was measured in assays designed to test the effectiveness of the peptides against the blastoconidia form of Candida (Table 1). These assays, which measure killing of blastoconidia of C. albicans, are described in Xu et al., which is herein incorporated by reference. (Xu, T. et al. (1991), Infect. Immun. 59(8):2549-2554).
A well-described strain of C. albicans was used in the bioassay. This strain, ATCC 44505, was originally isolated from the human oral cavity. Cultures were stored at 4° C. on Sabouraud dextrose agar plates (Difco Laboratories, Detroit, Mich.) until use. Stationary phase growth cells were obtained following growth at 30° C. for 18 h on Sabouraud dextrose agar plates. Colonies were harvested and suspended in 10 mM potassium phosphate buffer (PPB), pH 7.4.
To initiate log phase growth, an aliquot of stock C. albicans was suspended in Sabouraud dextrose broth (Difco) and incubated at 30° C. in a shaking water bath. The growth phase was determined by taking aliquots of the culture at one hour intervals to monitor the optical density (O.D.) at 560 nm. […] Log phase cells were harvested and utilized in the blastoconidia killing assay in a manner identical to that described for stationary phase cells. A final concentration of 10^5 cells/ml (either stationary or log phase fungus) was used in all assays.
The standard suspension buffer utilized in the blastospore killing assay was 0.01M PPB, pH 7.4. An alternate suspension buffer, N-2-hydroxyethylpiperazine-N'-2-ethanesulfonic acids (HEPES; Sigma Chemical Co., St. Louis, Mo.), pH 7.4, can also be utilized.
a. For the killing of blastoconidia assay, 50 μl aliquots of cells (2×10^5 cells/ml) diluted in suspension buffer were allowed to attach to a polystyrene 96-well micro-titer plate (COSTAR, Cambridge, Mass.) for 15 min at room temperature, and then incubated with an equal volume of a histatin or histatin peptide in suspension buffer for 1 h at 37° C. Controls were carried out in the absence of the histatin or histatin peptide. After incubation, wells were washed three times by centrifugation at 1,000 xg for 5 min and covered with aliquots of molten Sabouraud dextrose broth (Difco) containing 2% agarose (Sigma) at 45° C. The plate was then incubated at 30° C. for 8 h. Under such conditions, live cells will divide and begin to form colonies, while dead cells will remain as single cells. To determine the percentage of blastoconidia killed, a total of 100 single cells and/or colonies were counted under a Nikon inverted microscope at 400× magnification and the extent of killing was calculated using the formula: [1-(number of colonies in treated sample)/(number of colonies in control)]×100%.
Data were obtained by calculating the mean and standard deviation from triplicate assays.

Experiment [2] concerns P. gingivalis hemagglutination of erythrocytes. As to the kind of experiment: histatin peptide inhibition of hemagglutination assay. In kind it is cell-based, Porphyromonas gingivalis. The following applies: 2 hours at room temperature, visual examination. The method, then: The P. gingivalis strain of Section C.(1) was also used for the hemagglutination assays. The bacterial growth and culture conditions were also the same as those described in Section C.(1).
A classic assay was utilized to determine the hemagglutination potential of the P. gingivalis strain. Microorganisms were inoculated into BFB broth and cultured overnight, for approximately 24 hours at 37° C. under strictly anaerobic conditions with continuous agitation on a minishaker (IKA-Labortechnik, Staufen i. Br., Germany). The bacteria were harvested by centrifugatin at 3,000 r.p.m. for 20 min, at 4° C., washed twice in 0.01M phosphate buffered saline (PBS), pH 7.4, and suspended in the same buffer to an optical density of 1.0 at 550 nm. […] One ml of blood was drawn each time, washed twice in PBS at 1,000 r.p.m. for 10 min at 4° C. and suspended in the same buffer at a 2% (v/v) final concentration. Fifty μl of the bacterial suspension were serially diluted in PBS (two-fold steps) in a 96-well U-bottom microplate (Costar, Cambridge, Mass.). Fifty μl of the erythrocyte suspension were added to each well. Controls without bacteria or erythrocytes were included. The microplate was slightly shaken and incubated at room temperature for 2 hours. Visible examination on a white background was used to determine hemagglutination. The amount of hemagglutination was rated as none,(-), moderate (+/-), or strong (+). Erythrocytes in control wells with PBS precipitated to the center of the well, whereas erythrocyte-bacteria aggregates precipitated at the periphery of the bottom. The hemagglutination titer was expressed as the reciprocal of the highest dilution of the bacterial suspension providing visible hemagglutination.
Preparation of erythrocyte and bacterial suspensions were the same as for the hemagglutination assay. Fifty μl of histatin peptide solutions were diluted in PBS in a U-bottom microplate, at various two-fold concentrations with 600 nmole/ml being the highest. The bacterial concentration utilized was normally twice the minimal concentration which gave strong hemagglutination. Equal volumes of the bacterial suspension were poured into the wells containing the histatin peptides. Finally, 50 μl of erythrocyte suspension were added in each well. The microplate was slightly shaken and incubated at room temperature for 2 hours. Controls were made by replacement of the peptide dilutions with PBS only. The experiments were conducted at least twice. The lowest histatin peptide concentration without hemagglutination (complete inhibition) was determined upon visual examination. The highest final histatin peptide concentration utilized was 100 nmole/ml.

The subject of experiment [3] is Porphyromonas gingivalis strain A7A1-28. In words: microdilution bacteriostatic assay (P. gingivalis growth inhibition). In kind it is cell-based. The procedure: (a) The bacteria used in one investigation, Porphyromonas gingivalis strain A7A1-28, is a typical key pathogenic organism associated with destructive periodontal diseases. The bacteria were multiply subcultured in Enriched Todd Hewitt broth (ETHB, Difco Lab., Detroit, Mich.). Microorganisms were stored in the same broths containing 20% and 50% glycerol, at -20° C. and -70° C., respectively. These served as stock cultures from which all preparations originated.
Working stock cultures were maintained by weekly transfer to Brain Heart Infusion Anaerobic Sheep Blood Agar plates (BHIA, Becton Dickinson and Co., Cockeysville, Md.), and Trypticase Soy Anaerobic Sheep Blood Agar plates (TSA, Becton Dickinson and Co., Cockeysville, Md.). Plates were incubated for 3 to 4 days under strictly anaerobic conditions. For the bacteriostatic assay, bacteria were collected from plates, inoculated into the aforementioned broth and grown at 37° C., under strictly anaerobic conditions for 24 to 48 hours.
A modification of the typical microdilution assay (Rotilie et al., 1975) for the determination of minimal inhibitory concentration (MIC) of antimicrobial agents was utilized to investigate the bacteriostatic activity of the peptides. A standardized bacterial inoculum (P. gingivalis) was exposed to serially diluted antimicrobial peptides in an enriched broth medium that was suitable for the growth of anaerobic bacteria. The test was adapted for use in the 96-well microtiter plates. […] The modification introduced here was based on the spectrophotometric reading of the microtiter plate after incubation.
Microorganisms from cultures maintained in the aforementioned plates were inoculated into 5 ml of the above-mentioned broths and cultured overnight at 37° C. under strictly anaerobic conditions with continuous agitation on a minishaker (IKA-Labortechnik, Staufen i. Br., Germany). The bacteria were grown until reaching the late log phase and were then suspended in the same broths to an optical density (O.D.) of 0.1 at 560 nm. The peptides were diluted in 0.01M phosphate buffered saline (PBS), pH 7. Forty μl aliquots of peptide dilutions were added in each well of a U-bottom microtiter plate (Costar, Cambridge, Mass.) to give final concentrations of 2000, 1000, 500 and 250 μM. Twenty μl of bacterial inoculum was added to all the wells. Finally, 100 μl of the suitable broth were added to each well. The optical density of the wells of the microtiter plate was determined using a microplate reader set at 550 nm and the plate was then incubated under strictly anaerobic conditions for 24 hours. Controls were made by replacing the peptide dilutions with PBS alone. After the incubation, the mixtures in each well were mixed manually to resuspend sedimented bacteria and the plate was read again. The experiments were conducted twice every time. The biologic activity was calculated according to the formula:
100-[[(Fin ODexp-In ODexp)/(Fin ODctr-In ODctr)]×100]
In addition, the % increase in time to reach midlog phase growth was calculated.
The data presentation represent the means (±SEM) of at least 2 separate experiments.
(In general: Dilution methods test growth across graded concentrations, often in twofold steps.)

Where no end group is shown, it is not given here. Bounds are passed on as bounds.

T1 sequence (P09870 191-526): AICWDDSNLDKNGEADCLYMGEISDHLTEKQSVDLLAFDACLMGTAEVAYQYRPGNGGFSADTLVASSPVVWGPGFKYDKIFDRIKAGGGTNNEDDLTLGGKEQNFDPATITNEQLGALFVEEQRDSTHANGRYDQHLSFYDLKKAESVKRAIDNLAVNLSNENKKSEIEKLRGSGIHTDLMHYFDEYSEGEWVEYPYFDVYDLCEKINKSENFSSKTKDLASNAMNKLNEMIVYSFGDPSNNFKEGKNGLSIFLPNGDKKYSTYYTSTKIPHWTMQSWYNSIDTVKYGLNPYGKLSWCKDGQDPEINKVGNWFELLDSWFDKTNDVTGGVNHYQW
T1 sequence (P09870 51-181): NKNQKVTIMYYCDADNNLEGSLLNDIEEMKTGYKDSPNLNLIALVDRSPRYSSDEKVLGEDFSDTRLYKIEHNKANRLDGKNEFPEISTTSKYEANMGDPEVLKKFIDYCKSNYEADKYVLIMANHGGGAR

Consider `C[C@H](NC(=O)[C@H](Cc1c[nH]cn1)NC(=O)[C@H](CO)NC(=O)[C@@H](N)CC(=O)O)C(=O)N[C@@H](CCCCN)C(=O)N[C@@H](CCCNC(=N)N)C(=O)N[C@@H](Cc1c[nH]cn1)C(=O)N[C@@H](Cc1c[nH]cn1)C(=O)NCC(=O)N[C@@H](Cc1ccc(O)cc1)C(=O)N[C@@H](CCCCN)C(=O)N[C@@H](CCCNC(=N)N)C(=O)N[C@@H](CCCCN)C(=O)N[C@@H](Cc1ccccc1)C(=O)N[C@@H](Cc1c[nH]cn1)C(=O)N[C@@H](CCC(=O)O)C(=O)N[C@@H](CCCCN)C(=O)N[C@@H](Cc1c[nH]cn1)C(=O)N[C@@H](Cc1c[nH]cn1)C(=O)N[C@@H](CO)C(=O)N[C@@H](Cc1c[nH]cn1)C(=O)N[C@@H](CCCNC(=N)N)C(=O)NCC(=O)N[C@@H](Cc1ccc(O)cc1)C(=O)O` [SynHis5, reference compound], for which, at Clostripain, the IC50 was less than 6.2 µM. In experiment [1], the “C. albicans: LD50 (μM) for % killing” value amounted to 3.0 µM.

For KRHHGYKRKFHEKHH [peptide 105], in experiment [2], the “Hemagglutination: lowest dose (μM) at which hemagglutination was observed using P. Gingivalis” value (“Hemagglutination … using P. Gingivalis” for short) was 6.25 µM. Moreover, the “P. gingivalis: % inhibition at 500 μM dose (scoring)” value in experiment [3] (500 μM dose, highest response seen used in the scoring) is reported as “+++ (+++50-80%)”. For the same molecule, in experiment [1], the “C. albicans: LD50 (μM) for % killing” value came to 5.0 µM.

Regarding KRHHGYKRKFHEKHHSHR [peptide 103], in experiment [2], the “Hemagglutination … using P. Gingivalis” value came to 1.56 µM. Moreover, the “P. gingivalis: % increase in time to reach mid logphase growth (0.2 OD)” value in experiment [3] (2 mM dose) is on record as 56.6%. For the same molecule, the “C. albicans: LD50 (μM) for % killing” value in experiment [1] stood at 4.5 µM.

Consider KRHHGYKRKFHEKHHSHRGYR [peptide 101], for which the “Hemagglutination … using P. Gingivalis” value in experiment [2] came out at 1.56 µM. For the same molecule, in experiment [1], the “C. albicans: LD50 (μM) for % killing” value was 3.5 µM.

As a reminder, the IC50 is the concentration needed to halve the response being measured.

The values are drawn from US5912230A, “Anti-fungal and anti-bacterial histatin-based peptides” (priority 1998, dated 1999).
